Experimental data as given in patent publication US20240239786A1, “COMPOSITIONS AND METHODS FOR THE TREATMENT AND PREVENTION OF CANCER” (Yale University, priority 2021, published 2024).

Tests used:
CDK2 activity = assay: Western blot time course of CDK2 activity in PEO4 cells; assay type: cell-based; conditions: for level of phosphorylated histone H1 (readout of CDK2 activity) / levels of cyclin A2 and CDK2 phosphorylation: 30 μM DB4 or 1 μM triapine; for levels of cyclin A2 and CDK2 phosphorylation: 24 hr
Description: (§1) PEO1 cells were treated with 30 μM DB4 or 1 μM triapine for indicated times, pulsed with EdU for 1 hr and subsequently assayed for DNA synthesis inhibition as described in FIG. 2B. The bivariate plots of Alexa Fluor 488 and PE-Cy5 were gated to determine % S phase cells. […] PEO4 cells were treated with 30 μM DB4 or 1 μM triapine for indicated times, pulsed with EdU for 1 hr and subsequently assayed for DNA synthesis inhibition as described in FIG. 2B. The bivariate plots of Alexa Fluor 488 and PE-Cy5 were gated to determine % S phase cells. […] The bivariate plots of Alexa Fluor 488 and PE-Cy5 shown in FIG. 6A and FIG. 6B were gated to determine % cells in G1, S, and G2/M phases. […] PEO4 cells were treated with 30 μM DB4 or 1 μM triapine for various time periods and subjected to western blot analysis for the levels of cyclin A2, p-CDK1/2, p-H1, p-Chk1, and HSC70. The HSC70 protein level was used as a loading control. Cropped gel images of protein bands are presented. Cyclin A2, p-CDK1/2, and p-H1 bands were from re-probing the same blot. p-Chk1 and HSC70 bands were from re-probing the same duplicated blot. […] The CDK2 activity is expressed by the percentage of the p-HI levels relative to that of the 0 hr control is shown. […] Protein was analyzed by western blotting for p-Chk1, p-ATR, p-RPA32, γH2AX, and HSC70. Cropped gel images of protein bands are presented. All protein bands were from re-probing the same blot. DSB end resection is assessed by the level of p-RPA32.
Additional studies focused on determining how DB4 inhibited CDK2 activity in comparison with triapine. […] In contrast, triapine increased the levels of cyclin A2 and CDK2 phosphorylation evidently at 24 hr. Because CDK2 phosphorylation is inhibitory, the level of phosphorylated histone H1, a substrate of CDK2, was determined as a readout of CDK2 activity (Lin Z P et al., 2014, Molecular Cancer Res, 12:381-393) to reconcile this discrepancy. […] The kinetics of CDK2 activity somewhat resembled to the level of DNA synthesis caused by DB4 and triapine.
The methodology was described previously (Lin Z P et al., 2014, Molecular Cancer Res, 12:381-393; Ratner E S et al., 2016, Br J Cancer, 114:777-786). The anti-HSC70 antibody was purchased from Santa Cruz (Santa Cruz, CA). Anti-cyclin A2, anti-phospho-ATR (Thr-1981), anti-phospho-Chk1 (Ser-345), anti-phospho-CDK1/2 (Tyr-15), and anti-Y-H2AX (Ser-139) antibodies were from Cell Signaling (Danvers, MA). Anti-phospho-RPA32 (S4/S8) and anti-BRCA2 antibodies were from Bethyl Laboratories (Montgomery, TX). Anti-phospho-histone H1 antibody was from Millipore-Sigma (Burlington, MA). To avoid the cross-reaction of secondary antibodies with previously probed primary antibodies, blots were stripped and re-probed with next primary antibodies raised in a different species in an alternate fashion. All images were acquired and processed using the G: BOX gel documentation system and the GeneSnap software (Syngene, Frederick, MD). Brightness and contrast of images were applied equally across the entire gel/blot image and to controls. Images of protein bands were cropped and only brightness-adjusted using the PowerPoint software (Microsoft, Redmond, WA). Quantification of the protein band intensity was performed using the ImageJ software (NIH, Bethesda, MD).

PEO1 cells = assay: Flow cytometric EdU incorporation (DNA synthesis) assay, PEO1; assay type: cell-based; conditions: for cell cycle distribution: 30 μM DB4 or 1 μM triapine; for time-dependent inhibition of DNA synthesis (EdU-positive cells): 30 μM DB4 or 1 μM triapine, 3, 6, 24 hr
Description: Cells were plated for 24 hr and then treated with 50 μM compounds for 72 hr. For a positive control, cells were treated with 1 μM triapine for 72 hr. The percentage of cell survival was determined by the MTS cytotoxicity assay. […] Cells were treated with 50 μM compounds or 1 μM triapine for 24 hr. During the last hour, cells were pulse-labeled with EdU, stained with the Click-iT EdU Alexa Fluor 488 Assay Kit, counterstained with 7-AAD, and subsequently analyzed by flow cytometry. EdU-positive cells were gated to determine the percentage of the S phase cell population. The bivariate plots of Alexa Fluor 488 (EdU-positive) and PE-Cy5 (7-AAD-positive) are shown. […] Cells were treated with 50 μM compounds or 1 μM triapine for 24 hr. During the last hour, cells were pulse-labeled with EdU, stained with the Click-iT EdU Alexa Fluor 488 Assay Kit, counterstained with 7-AAD, and subsequently analyzed by flow cytometry. EdU-positive cells were gated to determine the percentage of the S phase cell population. The percentages of DNA synthesis in cells treated with each of 10 compounds and triapine relative to the DMSO-treated control is calculated and shown. FIG. 2D depicts representative results of dNTP measurement on triapine and DB4 in PEO4 cells. Cells were treated with 1 μM triapine or 50 μM DB4 for 24 hr. Cells were extracted with 65% methanol for determination of each of dNTPs expressed as pmole/10^6 cells. Data are means±SD (N=3). *, p<0.05; **, p<0.01; ***, p<0.001, compared with the DMSO-treated control in each dNTP. […] PEO1 cells were pre-treated with 1 mM dA plus […], 10 mM dC plus 10 mM dT, or all dNs for 1 hr and then treated with various concentrations of DB4 or triapine for 72 hr. The percentage of cell survival was determined by the MTS cytotoxicity assay. Data are means±SD (N=3). *, p<0.05; **, p<0.01; ***, p<0.001, compared with the control in each concentration of DB4 or triapine. FIG. 2F depicts schematic representation of structures and molecular compound names of triapine, DB4, and A4.
as §1, with “p-RPA32. […]” for “p-RPA32.”

Compound	level of phosphorylated histone H1 (readout of CDK2 activity) (CDK2 activity)	levels of cyclin A2 and CDK2 phosphorylation (CDK2 activity)	cell cycle distribution (PEO1 cells)	time-dependent inhibition of DNA synthesis (EdU-positive cells) (PEO1 cells)	Chk1 phosphorylation (CDK2 activity; time course, drug alone)	inhibition at 50 µM (PEO1 cells; Homo sapiens, 50 μM, 24 hr) [%]
NC(=S)NN=Cc1ncccc1N [triapine, 3-aminopyridine-2-carboxaldehyde-thiosemicarbazone, reference compound]	reduced the level of phosphorylated histone H1 earlier starting at 3 hr	increased	expansion of the G2/M population	prompt reduction in EdU-positive cells		
C=CCn1c(SCc2cccc(Cl)c2)nnc1C1CCN(Cc2nc3ccccc3s2)CC1 [DB4, 2-[(4-{4-allyl-5-[(3-chlorobenzyl)thio]-4H-1,2,4-triazol-3-yl}-1-piperidinyl)methyl]-1,3-benzothiazole]	down-regulation of phosphorylated histone H1 at 24 hr	downregulated	expansion of the G2/M population	gradual decline in the EdU-positive cell population	did not induced Chk1 phosphorylation	> 99
